# In patent publication US20250136581A1, “SUBSTITUTED TRIAZOLE DERIVATIVE, PREPARATION METHOD THEREFOR, PHARMACEUTICAL COMPOSITION THEREOF, AND USE THEREOF” (SHANGHAI SIMR BIOTECHNOLOGY CO., LTD., priority 2021, published 2025):
# Target: human α5β3γ2 receptors (α5-GABAA receptor) (Homo sapiens (Human), UniProt P18507+P31644)
# Assay: 3H-flunitrazepam competition binding, human α5β3γ2 GABAA receptor
# Conditions: HEK293 cell membranes, 1 nM 3H-flunitrazepam; read-out: α5-GABAAR Ki
# Experimental: The affinity of the compound to each subtype of GABAA receptor was determined by competing for the binding of ^3H-flunitrazepam to HEK293 cells stably expressing human α1β3γ2, α2β3γ2, α3β3γ2, and α5β3γ2 receptors.
# The cells were suspended in 50 mM Tris-HCl buffer (pH=7.4), homogenized 10 times on ice with a homogenizer for 20 seconds, and centrifuged at 1000 g for 10 minutes at 4° C. The supernatant was collected, and the above steps were repeated. The supernatant was centrifuged at 4° C. (33800 g; Thermo, rotor: A27-8×50) for 60 minutes, and the precipitate was resuspended in Tris buffer (50 mM Tris-HCl, 10 mM MgCl2, 0.5 mM EDTA, 10% glycerol). Protein was measured (BCA method, Pierce), and 1 mL aliquots were prepared and stored at −80° C.
# The radioligand competition binding assay was performed in a 200 μL system (96-well plate) containing 100 μL of cell membrane. The concentration of ^3H-flunitrazepam was 1 nM and the concentration of the test compound was in the range of […]. Flumazenil was used as a control. 1 μL of 2 mM flumazenil (final concentration […]) was added to the low signal control well (Low control, LC), and 1 μL of DMSO was added to the high signal control well (High control, HC). The final concentration of target membrane protein was […]. All test compound sample storage solutions were 10 mM. The working concentration of the samples was to dilute all the samples to 0.2 mM with DMSO, followed by 4-fold serial gradient dilutions for a total of 8 concentration gradients. The 96-well plate was sealed with a sealing film, and then incubated on a shaker at room temperature for 1 hour. At the same time, the GF/C filter plate was soaked in soaking buffer (0.3% PEI, stored at 4° C.) for at least 0.5 hours. After the binding incubation was completed, the cells were collected onto a GF/C filter plate using a cell harvester. The plate was washed four times with washing buffer (50 mM Tris-HCl, pH 7.4, stored at 4° C.). After drying in a 50° C. oven for 1 hour, the bottom of the dried GF/C filter plate was sealed. The residual radioactivity on the filter membrane was detected using liquid scintillation counting. 50 μL of scintillation fluid was added to each well, and the plate was sealed. The readings were taken using a Microbeta2. The inhibitory activity of the test sample on the binding of ^3H-flunitrazepam to GABAA receptor membrane proteins was calculated, and the IC50 of each test sample was calculated by dose-effect curve fitting (GraphPad Prism 5 software), and the Ki of the sample was calculated from the IC50, thus evaluating the binding ability of the sample to the various subtypes of GABAA receptors.
row,Ki,Compound
1,2.32 nM,"Cc1nnn(-c2ccc(C(F)F)cc2)c1COc1ccc(N2CCN3CC(C(C)(C)C)NC(=O)[C@@H]3C2)nn1 (single isomer, unassigned) [Example 202]"
2,2.02 nM,"Cc1nnn(-c2ccc(C(F)F)cc2)c1COc1ccc(N2CCN3CC(c4cnn(C)c4)NC(=O)[C@@H]3C2)nn1 (single isomer, unassigned) [Example 211]"
3,1.98 nM,"COC1CCN(c2ccc(OCc3c(C)nnn3-c3ccc(C(F)F)cc3)nn2)C1 (stereo not shown) [Example 1, 3-((1-(4-(Difluoromethyl)phenyl)-4-methyl-1H-1,2,3-triazol-5-yl)methoxy)-6-(3-methoxypyrrolidin-1-yl)pyridazine]"
4,7.25 nM,"Cc1nnn(-c2ccc(C(F)F)cc2)c1COc1ccc(N2CCCNC(=O)C2)nn1 [Example 4, 4-(6-((1-(4-(Difluoromethyl)phenyl)-4-methyl-1H-1,2,3-triazol-5-yl)methoxy)pyridazin-3-yl)-1,4-diazepan-2-one]"
5,0.89 nM,"Cc1nnn(-c2ccc(C(F)F)cc2)c1COc1ccc(N2CCC(N(C)C)C2)nn1 (stereo not shown) [Example 12, 1-(6-((1-(4-(Difluoromethyl)phenyl)-4-methyl-1H-1,2,3-triazol-5-yl)methoxy)pyridazin-3-yl)-N,N-dimethylpyrrolidin-3-amine]"
6,33.6 nM,CCNC(=O)[C@H]1CCN1c1ccc(OCc2c(C)nnn2-c2ccc(C(F)F)cc2)nn1 [Example 40]
7,1.1 nM,"Cc1nnn(-c2ccc(C(F)F)cc2)c1COc1ccc(N2CC(C(=O)Nc3ccccc3)C2)nn1 [Example 47, 1-(6-((1-(4-(Difluoromethyl)phenyl)-4-methyl-1H-1,2,3-triazol-5-yl)methoxy)pyridazin-3-yl)-N-phenylazetidine-3-carboxamide]"
8,2.97 nM,"Cc1nnc(C2CN(c3ccc(OCc4c(C)nnn4-c4ccc(C(F)F)cc4)nn3)C2)o1 [Example 53, 2-(1-(6-((1-(4-(Difluoromethyl)phenyl)-4-methyl-1H-1,2,3-triazol-5-yl)methoxy)pyridazin-3-yl)azetidin-3-yl)-5-methyl-1,3,4-oxadiazole]"
9,8.86 nM,"Cc1nnn(-c2ccc(C(F)F)cc2)c1COc1ccc(N2CCNCC2=O)nn1 [Example 71, 1-(6-((1-(4-(Difluoromethyl)phenyl)-4-methyl-1H-1,2,3-triazol-5-yl)methoxy)pyridazin-3-yl)piperazin-one]"
10,0.46 nM,"Cc1nnn(-c2ccc(Cl)cn2)c1COc1ccc(N2CCNC(=O)C2)nn1 [Example 72, 4-(6-((1-(5-Chloropyridin-2-yl)-4-methyl-1H-1,2,3-triazol-5-yl)methoxy)pyridazin-3-yl)piperazin-2-one]"
11,23.6 nM,"Cc1nnn(-c2ccc(C(F)F)nc2)c1COc1ccc(N2CCNC(=O)C2)nn1 [Example 74, 4-(6-((1-(6-(Difluoromethyl)pyridin-3-yl)-4-methyl-1H-1,2,3-triazol-5-yl)methoxy)pyridazin-3-yl)piperazin-2-one]"
12,40.2 nM,"Cc1nnn(-c2ccc(C#N)cc2)c1COc1ccc(N2CCNC(=O)C2)nn1 [Example 75, 4-(6-((1-(4-Cyanophenyl)-4-methyl-1H-1,2,3-triazol-5-yl)methoxy)pyridazin-3-yl)piperazin-2-one]"

# The next lines start with the compound.
row,Compound,Ki
1,"4-(6-((1-(4-(Difluoromethyl)phenyl)-4-methyl-1H-1,2,3-triazol-5-yl)methoxy)pyridin-3-yl)-1-methyl-1,4-diazepan-2-one [Example 17]",4.32 nM
2,"Cc1nnn(-c2ccc(C(F)F)cc2)c1COc1ccc(N2CC[C@@H]3CCNC(=O)[C@@H]3C2)nn1 (relative stereo) [Example 123, cis-7-(6-((1-(4-(Difluoromethyl)phenyl)-4-methyl-1H-1,2,3-triazol-5-yl)methoxy)pyridazin-3-yl)octahydro-2,7-naphthyridin-1(2H)-one]",7.2 nM
3,"Cc1nnn(-c2ccc(C(F)F)cc2)c1COc1ccc(N2CCN3C(=O)COC[C@@H]3C2)nn1 [Example 9, (S)-8-(6-((1-(4-(Difluoromethyl)phenyl)-4-methyl-1H-1,2,3-triazol-5-yl)methoxy)pyridazin-3-yl)hexahydropyrazino[2,1-c][1,4]oxazin-4(3H)-one]",1.46 nM
4,"Cc1nnn(-c2ccc(C(F)F)cc2)c1COc1ccc(N2CCNC(C)(C)C2=O)nn1 [Example 10, 1-(6-((1-(4-(Difluoromethyl)phenyl)-4-methyl-1H-1,2,3-triazol-5-yl)methoxy)pyridazin-3-yl)-3,3-dimethylpiperazin-2-one]",14.4 nM
5,"Cc1nnn(-c2ccc(C(F)F)cc2)c1COc1ccc(N2C(=O)NC(C)(C)C2=O)nn1 [Example 25, 3-(6-((1-(4-(Difluoromethyl)phenyl)-4-methyl-1H-1,2,3-triazol-5-yl)methoxy)pyridazin-3-yl)-5,5-dimethylimidazolidine-2,4-dione]",24.4 nM
6,"Cc1nnn(-c2ccc(C(F)F)cc2)c1COc1ccc(N2CCN[C@H](C(=O)N(C)C)C2)nn1 [Example 31, (S)-4-(6-((1-(4-(Difluoromethyl)phenyl)-4-methyl-1H-1,2,3-triazol-5-yl)methoxy)pyridazin-3-yl)-N,N-dimethylpiperazine-2-carboxamide]",7.45 nM
7,"Cc1nnn(-c2ccc(C(F)F)cc2)c1COc1ccc(N2CCN[C@H](C(N)=O)C2)nn1 [Example 32, (S)-4-(6-((1-(4-(Difluoromethyl)phenyl)-4-methyl-1H-1,2,3-triazol-5-yl)methoxy)pyridazin-3-yl)piperazine-2-amide]",2.94 nM
8,"Cc1nnn(-c2ccc(C(F)F)cc2)c1COc1ccc(N2CCN[C@H](C#N)C2)nn1 [Example 33, (S)-4-(6-((1-(4-(Difluoromethyl)phenyl)-4-methyl-1H-1,2,3-triazol-5-yl)methoxy)pyridazin-3-yl)piperazine-2-carbonitrile]",3.31 nM
9,"CNC(=O)[C@@H]1CN(c2ccc(OCc3c(C)nnn3-c3ccc(C(F)F)cc3)nn2)CCO1 [Example 38, (S)-4-(6-((1-(4-(Difluoromethyl)phenyl)-4-methyl-1H-1,2,3-triazol-5-yl)methoxy)pyridazin-3-yl)-N-methylmorpholine-2-carboxamide]",2.48 nM
10,"CCNC(=O)C1C2CN(c3ccc(OCc4c(C)nnn4-c4ccc(C(F)F)cc4)nn3)CC21 (stereo not shown) [Example 39, 3-(6-((1-(4-(Difluoromethyl)phenyl)-4-methyl-1H-1,2,3-triazol-5-yl)methoxy)pyridazin-3-yl)-N-ethyl-3-azabicyclo[3.1.0]hexane-6-carboxamide]",1.59 nM
11,"CCNC(=O)[C@H]1CCCN1c1ccc(OCc2c(C)nnn2-c2ccc(C(F)F)cc2)nn1 [Example 41, (R)-1-(6-((1-(4-(Difluoromethyl)phenyl)-4-methyl-1H-1,2,3-triazol-5-yl)methoxy)pyridazin-3-yl)-N-ethylpyrrolidine-2-carboxamide]",42.6 nM
12,"CCNC(=O)[C@@H]1CCCN1c1ccc(OCc2c(C)nnn2-c2ccc(C(F)F)cc2)nn1 [Example 42, (S)-1-(6-((1-(4-(Difluoromethyl)phenyl)-4-methyl-1H-1,2,3-triazol-5-yl)methoxy)pyridazin-3-yl)-N-ethylpyrrolidine-2-carboxamide]",115 nM
13,"Cc1nnn(-c2ccc(C(F)F)cc2)c1COc1ccc(N2CC(C(=O)NCc3ccccc3)C2)nn1 [Example 48, N-Benzyl-1-(6-((1-(4-(difluoromethyl)phenyl)-4-methyl-1H-1,2,3-triazol-5-yl)methoxy)pyridazin-3-yl)azetidine-3-carboxamide]",2.38 nM
14,"COCCNC(=O)C1CN(c2ccc(OCc3c(C)nnn3-c3ccc(C(F)F)cc3)nn2)C1 [Example 49, 1-(6-((1-(4-(Difluoromethyl)phenyl)-4-methyl-1H-1,2,3-triazol-5-yl)methoxy)pyridazin-3-yl)-N-(2-methoxyethyl)azetidine-3-carboxamide]",6.5 nM
15,"Cc1nnn(-c2ccc(C(F)F)cc2)c1COc1ccc(N2CC(C(=O)NC3CCOC3)C2)nn1 (stereo not shown) [Example 51, 1-(6-((1-(4-(Difluoromethyl)phenyl)-4-methyl-1H-1,2,3-triazol-5-yl)methoxy)pyridazin-3-yl)-N-(tetrahydrofuran-3-yl)azetidine-3-carboxamide]",6.17 nM
16,"CCNC(=O)CC1CN(c2ccc(OCc3c(C)nnn3-c3ccc(C(F)F)cc3)nn2)CCO1 (stereo not shown) [Example 63, 2-(4-(6-((1-(4-(Difluoromethyl)phenyl)-4-methyl-1H-1,2,3-triazol-5-yl)methoxy)pyridazin-3-yl)morpholin-2-yl)-N-ethylacetamide]",1.49 nM
